For eight compounds, Activity and mortality results are on record in ChEMBL document CHEMBL3046929, “Ethyl 4-[2-(6-Methyl-3-pyridyloxy)butyloxy]benzoate, a novel anti-juvenile hormone agent” (2003).

The test system of assay [1] is Bombyx mori. Put plainly: Anti-juvenile activity against newly molted third-instar larval stage of Bombyx mori Shunrei x shougetsu reared on artificial diet assessed as induction of precocious metamorphosis at 10 ug/larva relative to control. It is filed as functional.
Assay [2] concerns Bombyx mori. The experiment in a line: Anti-juvenile activity against newly molted third-instar larval stage of Bombyx mori Shunrei x shougetsu reared on artificial diet assessed as induction of precocious metamorphosis in presence of 20-hydroxyecdysone. It is filed as functional.
In assay [3] the test system is Bombyx mori. The experiment in a line: Anti-juvenile activity against newly molted third-instar larval stage of Bombyx mori Shunrei x shougetsu reared on artificial diet assessed as induction of precocious metamorphosis at 100 ug/larva relative to control. The format is functional.
In assay [4] the test system is Bombyx mori. The experiment in a line: Anti-juvenile activity against newly molted fourth-instar larval stage of Bombyx mori Shunrei x shougetsu reared on artificial diet assessed as induction of precocious metamorphosis in presence of juvenile hormone agonist methoprene. It is filed as functional.
In assay [5] the test system is Bombyx mori. The experiment in a line: Anti-juvenile activity against newly molted third-instar larval stage of Bombyx mori Shunrei x shougetsu reared on artificial diet assessed as blackening of cuticle measured after third ecdysis. It is filed as functional, organism-based.
The test system of assay [6] is Bombyx mori. Put plainly: Anti-juvenile activity against newly molted fourth-instar larval stage of Bombyx mori Shunrei x shougetsu reared on artificial diet assessed as induction of precocious metamorphosis in presence of 20-hydroxyecdysone. The format is functional.
For assay [7], the system named is Bombyx mori. The experiment in a line: Anti-juvenile activity against newly molted fourth-instar larval stage of Bombyx mori Shunrei x shougetsu reared on artificial diet assessed as induction of precocious pupation. It is filed as functional, organism-based.
In assay [8] the test system is Bombyx mori. The experiment in a line: Anti-juvenile activity against newly molted third-instar larval stage of Bombyx mori Shunrei x shougetsu reared on artificial diet assessed as induction of precocious metamorphosis in presence of juvenile hormone agonist methoprene. The format is functional.
Assay [9] has as its system Bombyx mori. Put plainly: Anti-juvenile activity against newly molted third-instar larval stage of Bombyx mori Shunrei x shougetsu reared on artificial diet assessed as induction of precocious metamorphosis at 1 ug/larva relative to control. The format is functional.
The subject of assay [10] is Bombyx mori. The experiment in a line: Anti-juvenile activity against newly molted third-instar larval stage of Bombyx mori Shunrei x shougetsu reared on artificial diet assessed as induction of precocious pupation at 1 to 100 ug/larva. It is filed as functional, organism-based.
Assay [11] deals with Bombyx mori. Put plainly: Anti-juvenile activity against newly molted fourth-instar larval stage of Bombyx mori Shunrei x shougetsu reared on artificial diet assessed as induction of precocious pupation at 100 ug. It is filed as functional, organism-based.
The test system of assay [12] is Bombyx mori. The experiment in a line: Anti-juvenile activity against newly molted third-instar larval stage of Bombyx mori Shunrei x shougetsu reared on artificial diet assessed as induction of precocious pupation at 100 ug. The format is functional, organism-based.
Assay [13] has as its system Bombyx mori. Put plainly: Anti-juvenile activity against newly molted third-instar larval stage of Bombyx mori Shunrei x shougetsu reared on artificial diet assessed as mortality at 100 ug/larva relative to control. The format is functional.

The structures appear in SMILES notation. Activity calls are given as the source filed them. No cut-off for these calls is given here.

On to `CCOC(=O)c1ccc(OCC(CC)Oc2ccc(C)nc2)cc1` (stereo unspecified), for which the Activity in the assay with Bombyx mori [1] is on record as 40%; with Bombyx mori [2] it was 90%; in the assay on Bombyx mori [3] it was 83%; with Bombyx mori [4], 0%; in the assay on Bombyx mori [6], 84%; with Bombyx mori [8] it was 0%. The Activity with Bombyx mori [9] worked out at 0%. The outcome in the assay on Bombyx mori [5] was Active. The outcome in the assay with Bombyx mori [7] and in the assay on Bombyx mori [10] was inactive.
With `CCc1cccc(OCC(CC)Oc2ccc(C)nc2)c1` (stereo unspecified), the outcome in the assay with Bombyx mori [11] and in the assay on Bombyx mori [12] was inactive.
On to `CCC(COc1ccc(Cl)cc1)Oc1ccc(C)nc1` (stereo unspecified), for which the result with Bombyx mori [11] and with Bombyx mori [12] was inactive.
Turning to `CCC(COc1cccc(Cl)c1)Oc1ccc(C)nc1` (stereo unspecified), the outcome in the assay with Bombyx mori [11] and with Bombyx mori [12] was inactive.
On to `CCOC(=O)c1ccc(OCC(CC)OC(=O)C(C)(C)C)cc1` (stereo unspecified), for which the Activity came to 23% with Bombyx mori [1], 0% in the assay with Bombyx mori [3] and 0% in the assay on Bombyx mori [9]. Moreover, the outcome in the assay with Bombyx mori [7] was inactive.
As to `Cc1ccc(OCCOc2cccc(Cl)c2)cn1`, the Activity with Bombyx mori [1] was determined as 0%. Further, the mortality in the assay on Bombyx mori [13] was 100%.
Regarding `CCc1ccc(OCC(CC)Oc2ccc(C)nc2)cc1` (stereo unspecified), the outcome with Bombyx mori [11] and in the assay with Bombyx mori [12] was inactive.
In the case of `CCOC(=O)c1cccc(OCC(CC)Oc2ccc(C)nc2)c1` (stereo unspecified), the outcome in the assay on Bombyx mori [11] and in the assay on Bombyx mori [12] was inactive.

As a reminder, the mortality is the share of the test organisms that died.
